What was measured:
[1] = biological target: Sodium-dependent dopamine transporter (Homo sapiens, UniProt Q01959); assay: DRUGMATRIX: Dopamine Transporter radioligand binding (ligand: [125I] RTI-55); assay type: cell membranes, CHO-K1, Membrane; conditions: cho-k1; Not Active = under 50% inhibition at 10 µM
[2] = biological target: T1, Cysteinyl leukotriene receptor 1 (Homo sapiens, UniProt Q9Y271); assay type: cell membranes, Membrane; conditions: cho-k1; also: in other assays of this panel Not Active means under 50% inhibition at 10 µM
T1 sequence (Q9Y271 whole entry): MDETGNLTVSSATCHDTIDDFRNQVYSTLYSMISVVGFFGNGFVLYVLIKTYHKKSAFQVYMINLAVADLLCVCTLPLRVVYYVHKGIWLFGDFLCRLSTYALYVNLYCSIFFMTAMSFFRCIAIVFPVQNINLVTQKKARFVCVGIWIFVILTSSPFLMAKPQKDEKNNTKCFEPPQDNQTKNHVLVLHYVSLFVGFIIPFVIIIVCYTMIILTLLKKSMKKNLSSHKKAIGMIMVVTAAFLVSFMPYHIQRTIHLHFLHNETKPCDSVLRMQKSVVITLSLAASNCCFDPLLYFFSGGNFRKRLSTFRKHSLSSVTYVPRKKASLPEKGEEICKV

[3] = biological target: T2, Glucocorticoid receptor (Homo sapiens, UniProt P04150); conditions: hela s3; also: in other assays of this panel Not Active means under 50% inhibition at 10 µM
T2 sequence (P04150 whole entry): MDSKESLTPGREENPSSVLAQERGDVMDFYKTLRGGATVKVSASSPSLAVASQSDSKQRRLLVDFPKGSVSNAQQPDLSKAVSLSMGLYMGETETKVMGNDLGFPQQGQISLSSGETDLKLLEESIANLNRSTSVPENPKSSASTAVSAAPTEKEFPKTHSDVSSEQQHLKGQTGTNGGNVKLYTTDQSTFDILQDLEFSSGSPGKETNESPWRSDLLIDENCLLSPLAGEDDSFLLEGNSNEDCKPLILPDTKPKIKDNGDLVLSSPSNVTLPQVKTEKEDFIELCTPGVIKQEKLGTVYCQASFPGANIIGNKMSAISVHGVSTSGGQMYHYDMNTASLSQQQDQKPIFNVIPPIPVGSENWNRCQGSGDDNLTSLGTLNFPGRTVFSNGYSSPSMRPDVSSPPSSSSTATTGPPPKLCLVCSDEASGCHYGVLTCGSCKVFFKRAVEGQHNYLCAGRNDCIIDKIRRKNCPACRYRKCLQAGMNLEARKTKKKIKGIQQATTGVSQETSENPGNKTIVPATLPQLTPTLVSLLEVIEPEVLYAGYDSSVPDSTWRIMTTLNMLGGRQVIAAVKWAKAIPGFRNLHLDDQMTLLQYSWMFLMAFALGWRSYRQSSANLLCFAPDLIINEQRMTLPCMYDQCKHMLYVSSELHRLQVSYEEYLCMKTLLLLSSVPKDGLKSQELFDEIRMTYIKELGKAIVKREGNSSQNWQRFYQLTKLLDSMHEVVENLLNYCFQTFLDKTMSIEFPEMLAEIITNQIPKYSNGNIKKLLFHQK

[4] = DRUGMATRIX: Phosphodiesterase PDE4 enzyme inhibition (substrate: [3H]cAMP + cAMP); conditions: u-937; Not Active = under 50% inhibition at 10 µM
[5] = biological target: T3, Angiotensin-converting enzyme (Oryctolagus cuniculus, UniProt P12822); assay type: tissue-based, Lung;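 also: enzymatic inhibition of angiotensin-converting enzyme measured with FAPGG as the substrate; in other assays of this panel Not Active means under 50% inhibition at 10 µM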
T3 sequence (P12822 whole entry): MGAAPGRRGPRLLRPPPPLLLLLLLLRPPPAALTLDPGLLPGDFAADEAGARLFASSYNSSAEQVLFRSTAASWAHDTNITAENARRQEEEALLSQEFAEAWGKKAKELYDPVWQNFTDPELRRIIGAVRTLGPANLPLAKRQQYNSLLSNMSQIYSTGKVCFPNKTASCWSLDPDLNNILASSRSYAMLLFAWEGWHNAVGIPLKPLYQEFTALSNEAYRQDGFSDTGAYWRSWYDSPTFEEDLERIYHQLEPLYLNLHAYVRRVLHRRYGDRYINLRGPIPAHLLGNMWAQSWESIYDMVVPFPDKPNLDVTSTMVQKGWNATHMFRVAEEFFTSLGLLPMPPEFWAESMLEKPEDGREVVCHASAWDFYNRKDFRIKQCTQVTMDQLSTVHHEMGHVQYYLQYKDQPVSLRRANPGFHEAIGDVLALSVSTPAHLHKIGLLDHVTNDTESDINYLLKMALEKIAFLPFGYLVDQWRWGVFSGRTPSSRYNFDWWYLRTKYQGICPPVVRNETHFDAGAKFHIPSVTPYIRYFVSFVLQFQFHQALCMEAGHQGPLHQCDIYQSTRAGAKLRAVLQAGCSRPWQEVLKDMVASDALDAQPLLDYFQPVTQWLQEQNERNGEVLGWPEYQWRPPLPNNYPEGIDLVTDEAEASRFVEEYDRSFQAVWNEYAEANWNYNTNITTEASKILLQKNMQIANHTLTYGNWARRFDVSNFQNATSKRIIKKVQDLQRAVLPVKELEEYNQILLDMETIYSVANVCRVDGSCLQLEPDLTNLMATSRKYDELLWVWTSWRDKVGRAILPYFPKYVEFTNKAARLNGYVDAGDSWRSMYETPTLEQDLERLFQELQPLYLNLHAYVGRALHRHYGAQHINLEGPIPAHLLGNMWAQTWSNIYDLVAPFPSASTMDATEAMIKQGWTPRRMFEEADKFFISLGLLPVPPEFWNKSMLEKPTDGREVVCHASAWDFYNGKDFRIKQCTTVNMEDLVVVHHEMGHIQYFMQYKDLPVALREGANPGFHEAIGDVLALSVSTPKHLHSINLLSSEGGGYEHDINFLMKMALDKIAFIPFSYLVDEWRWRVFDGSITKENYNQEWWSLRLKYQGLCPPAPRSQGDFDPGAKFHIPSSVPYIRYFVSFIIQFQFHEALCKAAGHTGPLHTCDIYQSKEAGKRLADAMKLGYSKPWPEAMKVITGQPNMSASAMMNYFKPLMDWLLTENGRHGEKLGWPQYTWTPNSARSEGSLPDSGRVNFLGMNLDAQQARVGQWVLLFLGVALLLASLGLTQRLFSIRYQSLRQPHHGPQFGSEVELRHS

[6] = biological target: T4, Type-2 angiotensin II receptor (Homo sapiens, UniProt P50052); assay type: cell-based; conditions: cho-k1; also: in other assays of this panel Not Active means under 50% inhibition at 10 µM
T4 sequence (P50052 whole entry): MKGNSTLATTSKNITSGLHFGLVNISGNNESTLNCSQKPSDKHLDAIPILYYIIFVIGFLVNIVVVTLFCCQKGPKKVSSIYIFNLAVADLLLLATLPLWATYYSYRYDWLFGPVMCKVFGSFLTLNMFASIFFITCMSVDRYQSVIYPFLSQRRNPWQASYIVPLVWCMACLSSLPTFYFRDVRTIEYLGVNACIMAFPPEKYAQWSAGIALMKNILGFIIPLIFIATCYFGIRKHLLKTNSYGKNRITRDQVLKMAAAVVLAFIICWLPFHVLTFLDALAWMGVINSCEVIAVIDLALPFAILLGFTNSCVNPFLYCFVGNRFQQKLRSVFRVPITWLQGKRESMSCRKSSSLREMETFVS

Sodium-dependent dopamine transporter, sequence (Q01959 whole entry): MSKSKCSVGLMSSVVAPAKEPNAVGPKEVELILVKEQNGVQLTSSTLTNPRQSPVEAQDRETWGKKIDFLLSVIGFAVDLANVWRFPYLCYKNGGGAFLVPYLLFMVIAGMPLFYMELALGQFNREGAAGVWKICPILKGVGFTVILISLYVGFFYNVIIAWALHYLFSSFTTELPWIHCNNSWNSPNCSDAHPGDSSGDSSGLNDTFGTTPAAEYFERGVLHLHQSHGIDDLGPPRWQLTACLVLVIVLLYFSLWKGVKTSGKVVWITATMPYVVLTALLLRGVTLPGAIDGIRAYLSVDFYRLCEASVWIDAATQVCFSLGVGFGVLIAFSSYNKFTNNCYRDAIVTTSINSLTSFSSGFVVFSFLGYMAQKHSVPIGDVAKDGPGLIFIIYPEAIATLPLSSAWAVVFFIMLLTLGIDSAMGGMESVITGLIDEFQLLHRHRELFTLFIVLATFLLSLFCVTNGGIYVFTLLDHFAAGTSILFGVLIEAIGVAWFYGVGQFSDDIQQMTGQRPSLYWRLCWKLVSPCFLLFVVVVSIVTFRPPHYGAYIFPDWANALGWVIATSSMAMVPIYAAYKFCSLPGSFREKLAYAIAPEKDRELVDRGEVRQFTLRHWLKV

COc1ccc(C2C(=O)c3ccccc3C2=O)cc1 [ANISINDIONE]
Not Active: IC50 [1] | IC50 [2] | IC50 [3] | IC50 [4] | Ki [4] | IC50 [5] | IC50 [6]

CC[C@H](C)[C@H]1O[C@]2(C=C[C@@H]1C)C[C@@H]1C[C@@H](C/C=C(\C)[C@@H](O[C@H]3C[C@H](OC)[C@@H](O[C@H]4C[C@H](OC)[C@@H](O)[C@H](C)O4)[C@H](C)O3)[C@@H](C)/C=C/C=C3\CO[C@@H]4[C@H](O)C(C)=C[C@@H](C(=O)O1)[C@]34O)O2.CO[C@H]1C[C@H](O[C@H]2[C@H](C)O[C@@H](O[C@@H]3/C(C)=C/C[C@@H]4C[C@@H](C[C@]5(C=C[C@H](C)[C@@H](C(C)C)O5)O4)OC(=O)[C@@H]4C=C(C)[C@@H](O)[C@H]5OC/C(=C\C=C\[C@@H]3C)[C@]54O)C[C@@H]2OC)O[C@@H](C)[C@@H]1O [ABAMECTIN]
Not Active: IC50 [1] | IC50 [2] | IC50 [3] | IC50 [4] | Ki [4] | IC50 [5] | IC50 [6]

NYSTATIN
Not Active: IC50 [1] | Ki [1] | IC50 [2] | Ki [2] | IC50 [3] | Ki [3] | IC50 [4] | Ki [4] | IC50 [5] | Ki [5] | IC50 [6] | Ki [6]

COC(=O)Nc1nc2ccc([S+]([O-])c3ccccc3)cc2[nH]1 (configuration not stated) [OXFENDAZOLE]
Not Active: IC50 [1] | IC50 [2] | IC50 [3] | IC50 [4] | Ki [4] | IC50 [5] | IC50 [6]

CCC1(C)CC(=O)NC1=O (configuration not stated) [ETHOSUXIMIDE]
Not Active: IC50 [1] | IC50 [2] | IC50 [3] | IC50 [4] | Ki [4] | IC50 [5] | IC50 [6]

Brc1c(NC2=NCCN2)ccc2nccnc12 [BRIMONIDINE]
Not Active: IC50 [1] | IC50 [2] | IC50 [3] | IC50 [4] | Ki [4] | IC50 [5] | IC50 [6]

CC[C@H]1CN2CCc3cc(OC)c(OC)cc3[C@@H]2C[C@@H]1C[C@H]1NCCc2cc(OC)c(OC)cc21 [EMETINE]
Not Active: IC50 [1] | IC50 [2] | IC50 [3] | IC50 [4] | Ki [4] | IC50 [5] | IC50 [6]

COC(=O)CCc1ccc(OCC(O)CNC(C)C)cc1 (configuration not stated) [ESMOLOL]
Not Active: IC50 [1] | IC50 [2] | IC50 [3] | IC50 [4] | Ki [4] | IC50 [5] | IC50 [6]

COc1ccc(C(=O)N2CCCC2=O)cc1
Not Active: IC50 [1] | IC50 [2] | IC50 [3] | IC50 [4] | Ki [4] | IC50 [5] | IC50 [6]

O=C(O)CCNC(=O)c1ccccc1 [BETAMIPRON]
Not Active: IC50 [1] | IC50 [2] | IC50 [3] | IC50 [4] | Ki [4] | IC50 [5] | IC50 [6]

O=c1cnn([C@@H]2O[C@H](CO)[C@@H](O)[C@H]2O)c(=O)[nH]1 [6-AZAURIDINE]
Not Active: IC50 [1] | IC50 [2] | IC50 [3] | IC50 [4] | Ki [4] | IC50 [5] | IC50 [6]

Cc1c(OCC(F)(F)F)ccnc1C[S+]([O-])c1nc2ccccc2[nH]1 (configuration not stated) [LANSOPRAZOLE]
Not Active: IC50 [1] | IC50 [2] | IC50 [3] | IC50 [4] | Ki [4] | IC50 [5] | IC50 [6]

O=C(c1ccccc1C(F)(F)F)N1CCC(Cc2ccccc2)CC1
Not Active: IC50 [1] | IC50 [2] | IC50 [3] | IC50 [4] | Ki [4] | IC50 [5] | IC50 [6]

NC(=O)C[S+]([O-])C(c1ccccc1)c1ccccc1 (configuration not stated) [MODAFINIL]
Not Active: IC50 [2] | IC50 [3] | IC50 [4] | Ki [4] | IC50 [5] | IC50 [6]

— ChEMBL document CHEMBL1909046, “DrugMatrix in vitro pharmacology data”
